Results published in patent US20110236501A1, “INJECTABLE DUAL DELIVERY ALLOGRAPH BONE/POLYMER COMPOSITE FOR TREATMENT OF OPEN FRACTURES” (Vanderbilt University, priority 2007, published 2011).
Converted amounts (≈) assume the structure as drawn. Like-named read-outs stand apart in the source and are kept apart here.

Columns and labels:
[1] = In vitro release of vancomycin from PUR; format: physicochemical
Protocol: Methods: rhBMP-2 was purchased from R&D systems. V-FB was obtained by precipitation of vancomycin solution at pH 8. […] In vitro release experiment was carried out in PBS, with medium refreshed as indicated. […] The scaffolds were then tested in critical sized rat femoral segmental defects, contaminated or non-contaminated. After 4 or 8 weeks, the defects are harvested, and both the new bone formation and infection control were examined.

S. aureus = settings: cited from earlier work
[2] = Solubility of tobramycin in polyester polyol; format: physicochemical
Protocol: Tobramycin was added as a powder to the hardener prior to reaction with the triisocyanate resin in order to minimize its reactivity with the reactive two-component polyurethane. Tobramycin's five primary amino groups otherwise cause it to react rapidly with isocyanates when in solution. Tobramycin is insoluble in polyester polyol, the primary component in the hardener; consequently the tobramycin remains in the solid phase during the chemical reaction. A loading of 8 wt-% was chosen to approximate the level of tobramycin delivered from the equivalent volume of PMMA cement beads, but higher loading can be achieved if necessary.

[3] = In vitro release of BSA-FITC / protein from PUR scaffolds; format: physicochemical; settings: added in solution, after 21 days
Protocol: A scaffold of the present invention was prepared by one-shot reactive liquid molding of HDIt and hardener containing polyester triol and PEG. BSA-FITC was added to the hardener component prior to mixing with HDIt. Considering that proteins incorporate groups with active hydrogens (e.g., hydroxyl groups and amines), there is a concern that the protein will react with the polyisocyanate, resulting in damage to the protein. […] To protect the protein from reacting with the polyisocyanate, BSA-FITC was lyophilized with a varying amount of glucose excipient and then added to the hardener as a powder. […] The glucose dosage plays an important role in the release profile; the presence of 0.5% and 2% glucose increased the total amount released after 21 days and increased the initial burst release. Further increasing the glucose dosage to 5% decreased the total release.
To evaluate the effect of encapsulation protein into PLGA particles on the release kinetics from PUR scaffold, small pieces of PUR scaffold incorporated with BSA-FITC powder or PLGA particles encapsulated with BSA-FITC were incubated in a-MEM containing 1% BSA under 37° C. the medium was changed as indicated in FIG. 18. The amount of BSA-FITC was determined by emission fluorescence at 530 nm after excitation at 485 nm.

[4] = In vitro release of PDGF-BB (I-125 labeling and ELISA); format: physicochemical; settings: for total release of PDGF-BB: PUR scaffold with 2 wt % glucose
Protocol: To enhance the release of PDGF-BB, 2 wt % glucose was added to the scaffolds. The release profile was monitored by two methods. In the first approach, PDGF-BB was radiolabeled with iodine-125 (I-125) and a gamma reading machine was used to monitor the release kinetics. Release of PDGF-BB was also measured by ELISA assay using the liquid releasates. Both methods yield similar release profiles (FIG. 13), characterized by a burst release on the first day. The ELISA assay detected a lower total release (around 65%, compared with around 85% for I-125 labeling method), which is possibly due to denaturation of some fraction of the released protein which cannot be detected by its antibody.
To mitigate the burst release, another strategy was adopted to achieve controlled release of PDGF-BB from polyurethane scaffolds. Heparin was bound to the surface of microparticles made from amine-terminated PLGA (average size 50 μm) using standard carbodiimide techniques. PDGF-BB was then loaded onto the particle surface through heparin binding. […] To enhance the stability of the protein on the PLGA particle surface, the particles were granulated by mixing the particles with a small amount of gelatin solution followed by forcing through a 48-mesh sieve to form 110-μm granules. The granules were then added to the hardener component before reacting with isocyanate to form PUR/G-PDGF-BB polyurethane scaffolds. The PDGF-BB release from the granules is similar to that of particles when detected by I-125 labeling (FIG. 14A), but lower when measured by ELISA (FIG. 14B).

MC3T3 cells = test: In vitro cell proliferation assay of released PDGF-BB; format: cell-based; settings: released PDGF-BB vs fresh PDGF-BB
Protocol: To assess the in vitro bioactivity of released PDGF-BB from the polyurethane scaffolds, releasates at day 1, 3, and 7 from PUR/PDGF-BB and PUR/G-PDGF-BB scaffolds were lyophilized and reconstituted to the same PDGF-BB concentration. After MC3T3 cells attached to the 96-well plates, the serum content in the cell culture medium was decreased from 10% to 2.5%. At the same time, the reconstituted releasates were added at dosages of 3 and 10 ng/ml. Fresh PDGF-BB (i.e., not released from the scaffolds but used directly as received from the supplier) was the positive control. Cell numbers were measured at time points of 24 and 72 h by staining the DNA and measuring fluorescence on a plate reader. […] At the 72 h time point, a dose-dependent effect was observed, although it was not evident at the 24 h time point.

## CN[C@H](CC(C)C)C(=O)N[C@H]1C(=O)N[C@@H](CC(N)=O)C(=O)N[C@H]2C(=O)N[C@H]3C(=O)N[C@H](C(=O)N[C@H](C(=O)O)c4cc(O)cc(O)c4-c4cc3ccc4O)[C@H](O)c3ccc(c(Cl)c3)Oc3cc2cc(c3O[C@@H]2O[C@H](CO)[C@@H](O)[C@H](O)[C@H]2O[C@H]2C[C@](C)(N)[C@H](O)[C@H](C)O2)Oc2ccc(cc2Cl)[C@H]1O [V-FB, vancomycin free base]
[1]
  duration of vancomycin release above the MIC for S. aureus: up to 8 weeks
[1]; listed as vancomycin
  duration of vancomycin release above the MIC for S. aureus: over 8 weeks

## NC[C@H]1O[C@H](O[C@H]2[C@H](O)[C@@H](O[C@H]3O[C@H](CO)[C@@H](O)[C@H](N)[C@H]3O)[C@H](N)C[C@@H]2N)[C@H](N)C[C@@H]1O [tobramycin]
S. aureus
  minimum bactericidal concentration: 16 mg/L (≈ 34.2 µM)
  minimum inhibitory concentration: 4 to 8 mg/L
[2]
  solubility in polyester polyol: insoluble

## BSA-FITC: Bone serum albumin-fluorescein isothiocyanate
[3]
  release of BSA-FITC: < 20%

## PDGF-BB: Platelet-derived growth factor-BB
[4]; PDGF-BB added to PUR as a powder without the glucose excipient
  protein release: negligible protein release
[4]; ELISA
  total release of PDGF-BB: around 65%
[4]; I-125 labeling
  total release of PDGF-BB: around 85%
MC3T3 cells
  decreased activity compared with the positive control: 20%
